Test results reported in patent publication US12440451B2, “Compositions and methods using an epigenetic inhibitor” (DANA-FARBER CANCER INSTITUTE, INC., priority 2017, dated 2025).

Test system: human CD8+ T cells
Test: activation of human CD8+ T cells with anti-CD3 and anti-CD28, flow cytometry
Format: cell-based
Settings: 10 μM; 7 days
Protocol: Further investigation was conducted to discover whether the augmented cytotoxic effector phenotype observed in mouse CD8^+ T cells post-activation with HDAC3 inhibition was also true in human CD8^+ T cells. Total CD8^+ T cells were negatively isolated from the peripheral blood of healthy human donors, and activated in vitro using plate-bound anti-CD3 and soluble anti-CD28 antibodies in the presence or absence of 0 μM (vehicle control) or 10 μM RGFP966. Following 7 days of in vitro activation, without additional IL-2 supplementation, CD8^+ T cells were analyzed by flow cytometry for expression of markers associated with T cell activation, effector cytokines, and cytotoxicity. The results are summarized in the graphs of FIG. 13A.

Nc1cc(F)ccc1NC(=O)/C=C/c1cnn(C/C=C/c2ccccc2)c1 [RGFP966]
upregulation: expression of CD25 | expression of CD44 | expression of granzyme B
